# From patent US20240358692A1, “TREATMENT OF SCLERODERMA” (Aisa Pharma, Inc., priority 2023, published 2024)
# Columns and labels:
# participants with SSc-RP [1] = assay: Average pain score recorded during weekly RP attacks (11-point Likert scale); type: in vivo, human; details: Tadalafil 5 mg (n = 4); Table G
# Source text: The absolute change in average pain score (11-point Likert scale) of weekly RP attacks from baseline to the end of each Dosing Period will be a secondary outcome variable. The sponsor-developed participant-informed diary will be used to record data. The average pain score of weekly RP attacks is defined as the total pain scores divided by total number of RP attacks within the last 7 days of each dosing period. Average of the last 7 days of screening assessments will be used as baseline for the analysis of all periods. The variable will be calculated similar to frequency data as before.
# participants with SSc-RP [2] = assay: SHAQ - Visual Analog Scale - Pain; type: in vivo, human
# Source text: The standard, validated, patient reported outcome measures tool for SSc patients, the Scleroderma Health Assessment Questionnaire (SHAQ), will be used to assess the participant qualify of life. Details are attached in the Appendix. The participant quality of life will be scored, and a disability index calculated for each questionnaire completed by the patient at Screening and each in-clinic visit. The absolute change in participant quality of life from baseline to the end of each dosing period will be calculated similar to frequency data as before.
# The standard, validated, patient reported outcome measures tool for SSc patients, the SHAQ, was collected at the time points specified in the study schedules (FIG. 2 and FIGS. 4A and 4B) to assess the participant's quality of life. The SHAQ included a Raynaud's VAS that will also be reported separately.
# Pain on the SHAQ outcome measure on the first line in table F is a composite of all pain experienced in patients with SSc, comprising joint pain, back pain, headache, odynophagia, skin ulcer related discomfort, Raynaud's, and neuropathic pain. Aisa Pharma believes, based on the biologic attributes and actions of cilnidipine that differ from most dihydropyridine calcium channel antagonists that cilnidipine might have direct analgesic effects in certain pain conditions and in fact has been designated to receive evaluation through the […] Preclinical Pain Screening Platform Program to investigate the drug in multiple in vitro and in vivo preclinical models of pain that are validated and predictive of effects in man.
# participants with SSc-RP [3] = type: in vivo; details: tadalafil monotherapy group
# Source text: Treatment-emergent AEs (TEAEs) are defined as AEs that occur or worsen after the dose of study drug. If the timing of the start of an AE could not be determined unambiguously from the start or end dates provided, it will be assumed to be a TEAE. An AE is considered related if the relationship to either of the study drug has been indicated as possibly or probably or definite related by the investigator. An AE leading to study withdrawal is defined as an AE that cause a subject early terminated from the study. AEs will be identified as emerging in the following parts: • TEAEs for Part A will be those that started during Part A (i.e., from the first dose in Part A to end of follow up of Part A) • TEAEs for Part B will be those that started during Part B (i.e., from the first dose in Part B to end of follow-up of Part B).
# In this study, AEs and SAEs were reported for all participants from the time of randomization until the completion of the Follow-up/EOS visit. Adverse events that were ongoing at the EOS visit were marked as Not Recovered/Not resolved on the AE eCRF page (see Section 9.4.4). The Investigator did full AE review during in-clinic visit. All spontaneously volunteered and enquired for, as well as observed AEs, were recorded in the participant's medical records and the eCRF.
# Severity of AEs were graded by the Investigator as one of: • Mild (Grade 1): A type of AE that is usually transient and may require only minimal treatment or therapeutic intervention.
# [4] = Modified ITT Population-Part A, Day 12, dose cilnidipine 10 mg, tadalafil 5 mg, alone or combined as labelled
# [5] = Tadalafil 5 mg, SSc patients, PP, Part A
compound,measurement,setting,value
CN1CC(=O)N2[C@H](c3ccc4c(c3)OCO4)c3[nH]c4ccccc4c3C[C@@H]2C1=O [Tadalafil],Average Pain Score Change From Baseline [Mean (SD)],participants with SSc-RP [1],0.37
same,"Visual Analog Scale-Pain, Change from Baseline, Mean",participants with SSc-RP [2]; [4],1.000
same,"Visual Analog Scale-Pain, Change from Baseline, Median",participants with SSc-RP [2]; [4],0.800
same,"Visual Analog Scale-Pain, In Clinic Visit (Day 12), Mean","participants with SSc-RP [2]; Modified ITT Population-Part A, dose cilnidipine 10 mg, tadalafil 5 mg, alone or combined as labelled",5.300
same,"SHAQ VAS Pain, Change from Baseline, Max",participants with SSc-RP [2]; [5],1.50
same,"SHAQ VAS Pain, Change from Baseline, Mean",participants with SSc-RP [2]; [5],1.000
same,"SHAQ VAS Pain, Change from Baseline, Median",participants with SSc-RP [2]; [5],0.800
same,"SHAQ VAS Pain, Change from Baseline, Min",participants with SSc-RP [2]; [5],"0.70,"
same,"SHAQ VAS Pain, Change from Baseline, Q1",participants with SSc-RP [2]; [5],"0.700,"
same,"SHAQ VAS Pain, Change from Baseline, Q3",participants with SSc-RP [2]; [5],1.500
same,"SHAQ VAS Pain, Day 12, Max",participants with SSc-RP [2]; [5],9.20
same,"SHAQ VAS Pain, Day 12, Mean",participants with SSc-RP [2]; [5],5.300
same,"SHAQ VAS Pain, Day 12, Median",participants with SSc-RP [2]; [5],5.850
same,"SHAQ VAS Pain, Day 12, Min",participants with SSc-RP [2]; [5],"0.30,"
same,"SHAQ VAS Pain, Day 12, Q1",participants with SSc-RP [2]; [5],"1.900,"
same,"SHAQ VAS Pain, Day 12, Q3",participants with SSc-RP [2]; [5],8.700
same,"SHAQ VAS Pain, Percent Change from Baseline, Max",participants with SSc-RP [2]; [5],75.0
same,"SHAQ VAS Pain, Percent Change from Baseline, Mean",participants with SSc-RP [2]; [5],31.35
same,"SHAQ VAS Pain, Percent Change from Baseline, Median",participants with SSc-RP [2]; [5],10.81
same,"SHAQ VAS Pain, Percent Change from Baseline, Min",participants with SSc-RP [2]; [5],"8.2,"
same,"SHAQ VAS Pain, Percent Change from Baseline, Q1",participants with SSc-RP [2]; [5],"8.24,"
same,"SHAQ VAS Pain, Percent Change from Baseline, Q3",participants with SSc-RP [2]; [5],75.00
same,Worst AE (group),participants with SSc-RP [3],Worst AE in tadalafil
